Measurements: ChEMBL document CHEMBL4321834, “Glechomanamides A-C, Germacrane Sesquiterpenoids with an Unusual Δ8-7,12-Lactam Moiety from Salvia scapiformis and Their Antiangiogenic Activity” (J Nat Prod, 2019)
Activity calls are given as the source filed them.

Tests used:
[1] = target: Vascular endothelial growth factor receptor 2 (Homo sapiens) (UniProt P35968); assay: Inhibition of VEGF-induced VEGFR2 phosphorylation in HUVEC at 1 to 100 uM preincubated for 30 mins followed by stimulation with VEGF for 20 mins by Western blot analysis; type: cell-based
Sequence of Vascular endothelial growth factor receptor 2 (Homo sapiens) (P35968 whole entry): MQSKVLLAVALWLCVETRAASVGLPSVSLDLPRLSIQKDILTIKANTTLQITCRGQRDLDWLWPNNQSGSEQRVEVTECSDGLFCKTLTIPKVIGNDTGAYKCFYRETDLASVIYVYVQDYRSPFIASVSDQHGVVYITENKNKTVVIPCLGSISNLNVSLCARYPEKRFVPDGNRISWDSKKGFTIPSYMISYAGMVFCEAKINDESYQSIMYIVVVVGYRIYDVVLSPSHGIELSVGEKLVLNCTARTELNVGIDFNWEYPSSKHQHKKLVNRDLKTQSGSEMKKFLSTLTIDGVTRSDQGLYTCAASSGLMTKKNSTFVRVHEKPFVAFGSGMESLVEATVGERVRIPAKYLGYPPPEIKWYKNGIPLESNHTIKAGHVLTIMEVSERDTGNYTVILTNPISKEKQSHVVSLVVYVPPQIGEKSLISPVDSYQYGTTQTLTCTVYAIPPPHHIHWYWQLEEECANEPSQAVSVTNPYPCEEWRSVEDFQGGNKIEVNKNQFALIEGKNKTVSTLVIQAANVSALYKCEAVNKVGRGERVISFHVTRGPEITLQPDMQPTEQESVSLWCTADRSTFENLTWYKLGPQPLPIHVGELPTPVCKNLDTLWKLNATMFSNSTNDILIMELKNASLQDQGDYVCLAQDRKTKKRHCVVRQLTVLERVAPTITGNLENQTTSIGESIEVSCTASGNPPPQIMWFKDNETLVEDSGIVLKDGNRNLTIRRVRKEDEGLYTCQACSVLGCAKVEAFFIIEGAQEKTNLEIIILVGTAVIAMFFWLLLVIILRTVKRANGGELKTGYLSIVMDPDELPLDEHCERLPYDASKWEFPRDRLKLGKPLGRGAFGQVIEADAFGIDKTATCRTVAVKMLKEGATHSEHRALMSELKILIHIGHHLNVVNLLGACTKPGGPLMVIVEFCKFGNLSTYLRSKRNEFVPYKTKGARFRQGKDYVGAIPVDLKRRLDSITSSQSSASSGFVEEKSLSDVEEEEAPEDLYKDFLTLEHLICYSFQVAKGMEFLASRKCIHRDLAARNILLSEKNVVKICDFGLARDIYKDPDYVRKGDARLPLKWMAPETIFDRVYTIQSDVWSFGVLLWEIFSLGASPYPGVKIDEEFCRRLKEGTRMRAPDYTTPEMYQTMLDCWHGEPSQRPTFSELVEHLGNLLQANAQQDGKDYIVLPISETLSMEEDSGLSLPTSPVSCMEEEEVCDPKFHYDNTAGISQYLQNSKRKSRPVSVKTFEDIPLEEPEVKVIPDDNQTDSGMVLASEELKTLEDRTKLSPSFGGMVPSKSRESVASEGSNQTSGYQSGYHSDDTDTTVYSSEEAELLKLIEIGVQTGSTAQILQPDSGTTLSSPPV

HUVEC [2] = assay: Decrease in total VEGF expression in HUVEC at 1 to 100 uM preincubated for 30 mins followed by incubation with VEGF for 20 mins by Western blot analysis; type: functional, cell-based; details: Homo sapiens
[3] = target: Vascular endothelial growth factor receptor 2 (Homo sapiens) (UniProt P35968); assay: Inhibition of VEGFR2 in HUVEC assessed as inhibition of VEGF-induced tube formation incubated for 8 hrs by inverted microscopic method; type: cell-based
[4] = target: Vascular endothelial growth factor receptor 2 (Homo sapiens) (UniProt P35968); assay: Inhibition of VEGFR2 in HUVEC assessed as inhibition of VEGF-induced tube formation at 80 uM incubated for 8 hrs by inverted microscopic method; type: cell-based
HUVEC [5] = assay: Decrease in D-glucose-induced BMP4 mRNA expression in HUVEC at 10 uM incubated for 48 hrs in presence of […] by real time-PCR analysis; type: functional, cell-based; details: Homo sapiens
HUVEC [6] = assay: Decrease in BMP4 expression in HUVEC at 1 to 100 uM preincubated for 30 mins followed by incubation with VEGF for 20 mins by Western blot analysis; type: functional, cell-based; details: Homo sapiens
HUVEC [7] = assay: Decrease in HK2 expression in HUVEC at 1 to 100 uM preincubated for 30 mins followed by incubation with VEGF for 20 mins by Western blot analysis; type: functional, cell-based; details: Homo sapiens
HUVEC [8] = assay: Decrease in GLUT1 expression in HUVEC at 1 to 100 uM preincubated for 30 mins followed by incubation with VEGF for 20 mins by Western blot analysis; type: functional, cell-based; details: Homo sapiens
HUVEC [9] = assay: Decrease in D-glucose-induced ANGPT2 mRNA expression in HUVEC at 10 uM incubated for 48 hrs in presence of […] by real time-PCR analysis; type: functional, cell-based; details: Homo sapiens
HUVEC [10] = assay: Decrease in D-glucose-induced ANGPT2 mRNA expression in HUVEC at 500 uM incubated for 48 hrs in presence of […] by real time-PCR analysis; type: functional, cell-based; details: Homo sapiens
HUVEC [11] = assay: Decrease in D-glucose-induced BMP4 mRNA expression in HUVEC at 500 uM incubated for 48 hrs in presence of […] by real time-PCR analysis; type: functional, cell-based; details: Homo sapiens

Measured: inhibition

C/C=C(\C)C(=O)O[C@@H]1C2=C(C)C(=O)N[C@]2(O)C[C@@]2(C)O[C@@H]2CC[C@@]2(C)O[C@H]12
active: [1] | HUVEC [2] | [3] Dose-dependent effect | [4] | HUVEC [5] | HUVEC [6] | HUVEC [7] | HUVEC [8] | HUVEC [9]

CN(C)C(=N)NC(=N)N
active: HUVEC [10] | HUVEC [11]
